The source of these data is patent US20040204577A1, “Novel peptide-forming enzyme gene” (Ajinomoto Co., Inc., priority 2003, published 2004).

The test system of assay [1] is enzyme derived from Sphingobacterium sp. strain FERM BP-8124 (SP-Sepharose HP fraction enzyme). The experiment in a line: Enzyme substrate specificity (11), (12): peptide production. It counts as biochemical. The arrangement: key to Produced peptide (Table 15-1) / Produced peptide (Table 15-3) / Produced peptide (Table 15-4): +: those peptides for which production was confirmed but which were unable to be quantified due to the absence of a standard; a trace amount. The note with it: carboxy component 100 mM, 0.33 units enzyme, pH 9.0, 25° C., 1.5 hours; for Produced peptide (Table 15-4): amides and methylamine; for Produced peptide (Table 15-2): L-Gln 150 mM. Summed up:
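Peptide and oligopeptide formation catalysed by SP-Sepharose HP-fraction enzyme from Sphingobacterium sp. FERM BP-8124; carboxy components used as hydrochloride salts, 0.1% Tween-80 final added with L-Tyr-OMe. Products quantified; "+" denotes detected but unquantified (no standard), "tr" trace.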

In assay [2] the test system is microbial cells of Empedobacter brevis strain FERM BP-8113. The assay can be described thus: Production of peptide using microbial cells. In kind it is cell-based. The note with it: 1 mL cell suspension (100 g/L) + 1 mL buffer with 200 mM carboxy component (hydrochloride) and 400 mM amino acid; borate buffer pH 9.0, 10 mM EDTA; 18° C., 2 hours. Here is the method: A 50 mL medium (pH 6.2) containing 5 grams (g) of glucose, 5 g of ammonium sulfate, 1 g of monopotassium phosphate, 3 g of dipotassium phosphate, 0.5 g of magnesium sulfate, 10 g of yeast extract and 10 g of peptone in 1 liter (L) was transferred to a 500 mL Sakaguchi flask and sterilized at 115° C. for 15 minutes. This medium was then inoculated with one loopful cells of Empedobacter brevis strain FERM BP-8113 (Depositary institution: the independent administrative corporation, National Institute of Advanced Industrial Science and Technology, International Patent Organism Depositary, Address of depositary institution: Chuo Dai-6, 1-1 Higashi 1-Chome, Tsukuba-shi, Ibaraki-ken, Japan, International deposit transfer date: Jul. 8, 2002) that had been cultured at 30° C. for 16 hours in the same medium, followed by shake culturing at 30° C. for 16 hours and 120 strokes/min.

The subject of assay [3] is peptide-forming enzyme (Mono S fraction enzyme). The assay can be described thus: Enzyme substrate specificity (1)-(10), (13), (14): peptide production. In kind it is biochemical, Empedobacter brevis. The note with it: pH 9.0, 25° C., 3 hours. The essentials: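 Mono S enzyme fraction in 100 mM borate buffer (pH 9.0) with 10 mM EDTA and 100 mM carboxy component (amino acid methyl esters or amides); amine components (L-glutamine, amino acids, amino acid amides or methylamine) at 150 mM, or 200 mM L-glutamine with varied esters. Reactions ran at 25° C for 2–3 hours; 0.1% Tween-80 added for Trp/Tyr-OMe.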

Assay [4] shares this test system. The assay can be described thus: Enzyme inhibitors: effects on the production of L-alanyl-L-glutamine. It counts as biochemical, Empedobacter brevis. The conditions noted are these: for Relative activity of L-Ala-L-Gln production: inhibitor at 10 mM, borate buffer pH 9.0, 25° C., 5 minutes, 100 = absence of enzyme inhibitor.
Assay [5] is described as follows: Comparison of ability to catalyze peptide formation with known enzymes. In kind it is biochemical. The note with it: for L-Ala-L-Gln production rate: 100 mM L-alanine methyl ester hydrochloride, 200 mM L-glutamine, pH 9.0, 25° C., enzyme added 0.02-3.60 protein mg/ml as in Table 14; for Ratio of L-Ala-L-Gln production rate per enzyme unit weight: enzyme of present invention = 100.0. The text has this:
The enzyme homogeneously purified in Example 3 was used as a source of the present enzyme of the present invention.

Setting [6] is: 100 mM L-alanine methyl ester hydrochloride, L-amino acid 150 mM.
[7] abbreviates: L-amino acid methyl ester hydrochloride 100 mM, L-amino acid 150 mM.
The mark [8] stands for this setting: L-amino acid amide hydrochloride as carboxy component 100 mM, L-amino acid 150 mM.
[9] abbreviates: L-amino acid methyl ester hydrochloride 100 mM, 150 mM L-glutamine.

Where a SMILES comes first, the peptide text is derived from it.

Take `CC(C)C[C@H](NC(=O)[C@H](C)N)C(=O)O` [L-Ala-L-Leu] (H-Ala-Leu-OH): the “Produced peptide (Table 15-1)” value in assay [1] (amine component 150 mM) was found to be 33.0 mM. Moreover, the figures for the Formed peptide in assay [2] and in assay [3] (setting [6]) were 38.2 mM and 45.3 mM, respectively.

With `N[C@@H](CO)C(=O)N[C@@H](CO)C(=O)O` [L-Ser-L-Ser] (H-Ser-Ser-OH), the “Produced peptide (Table 15-3)” value in assay [1] (amine component 150 mM) stood at 9.9 mM. Further, the Formed peptide in assay [2] turned out to be 29.0 mM; in assay [3] (setting [7]) it was 38.0 mM.

As to `C[C@H](N)C(=O)N[C@@H](CO)C(=O)O` [L-Ala-L-Ser] (H-Ala-Ser-OH), the “Produced peptide (Table 15-1)” value in assay [1] (amine component 150 mM) was determined as 43.8 mM. The Formed peptide in assay [2] is listed as 51.3 mM; in assay [3] (setting [6]) it was 62.5 mM.

For the molecule `CSCC[C@H](NC(=O)[C@H](C)N)C(=O)O` [L-Ala-L-Met] (H-Ala-Met-OH), the “Produced peptide (Table 15-4)” value in assay [1] (amine component 150 mM) is “tr”. Besides, the “Produced peptide (Table 15-1)” value in assay [1] (amine component 150 mM) worked out at 86.9 mM. In addition, the Formed peptide is given as 68.3 mM in assay [2], 83.3 mM in assay [3] (setting [6]) and 3.4 mM in assay [3] (setting [8]).

Turning to `O=C(O)CN(CCN(CC(=O)O)CC(=O)O)CC(=O)O` [EDTA, ethylene diamine tetraacetic acid], the “Relative activity of L-Ala-L-Gln production” value in assay [4] is on record as 96%.

For `N=C(N)Nc1ccc(C(=O)Oc2ccc([N+](=O)[O-])cc2)cc1` [p-Nitrophenyl-p′-guanidino benzoate, p-nitrophenyl-p′-guanidinobenzoate], the “Relative activity of L-Ala-L-Gln production” value in assay [4] is reported as 0.1%. In assay [4] (serine enzyme inhibitors at 10 mM), the “Inhibition of the enzyme (in words)” value is “inhibited”.

On to `C[C@H](N)C(=O)N[C@@H](CCCN=C(N)N)C(=O)O` [L-Ala-L-Arg] (H-Ala-Arg-OH), for which the “Produced peptide (Table 15-1)” value in assay [1] (amine component 150 mM) stood at 72.2 mM. Also, the Formed peptide came out at 72.1 mM in assay [2] and 88.0 mM in assay [3] (setting [6]).

“Chymopapain: thiol endopeptidase described in EP 359399B1, purified enzyme manufactured by Sigma”: in assay [5], the L-Ala-L-Gln production rate is on record as 0.0100 mM/min and the “Ratio of L-Ala-L-Gln production rate per enzyme unit weight” value (shortened to “Ratio … per enzyme unit weight”) was found to be 0.0013.

As for `CSCC[C@H](N)C(=O)N[C@@H](Cc1ccccc1)C(=O)O` [L-Met-L-Phe] (H-Met-Phe-OH), the “Produced peptide (Table 15-3)” value in assay [1] (amine component 150 mM) came out at 8.9 mM. Moreover, the Formed peptide in assay [2] was 28.5 mM.

As for `CSCC[C@H](NC(=O)[C@@H](N)C(C)C)C(=O)O` [L-Val-L-Met] (H-Val-Met-OH), in assay [1] (amine component 150 mM), the “Produced peptide (Table 15-3)” value is 6.8 mM. For the same molecule, the results for the Formed peptide in assay [2] and in assay [3] (setting [7]) were 10.5 mM and 10.3 mM, respectively.

In the case of `CC[C@H](C)[C@H](N)C(=O)N[C@@H](CCSC)C(=O)O` [L-Ile-L-Met] (H-Ile-Met-OH), in assay [1] (amine component 150 mM), the “Produced peptide (Table 15-3)” value is reported as 5.1 mM. Moreover, the results for the Formed peptide in assay [2] and in assay [3] (setting [7]) were 8.3 mM and 10.0 mM, respectively.

Take `NCC(=O)N[C@@H](Cc1cnc[nH]1)C(=O)O` [Gly-L-His] (H-Gly-His-OH): the “Produced peptide (Table 15-3)” value in assay [1] (amine component 150 mM) is reported as 36.2 mM. For the same molecule, the Formed peptide in assay [2] worked out at 22.1 mM; in assay [3] (setting [7]) it was 31.6 mM.

For the molecule `CC(C)C[C@H](NC(=O)[C@@H](N)[C@@H](C)O)C(=O)O` [L-Thr-L-Leu] (H-Thr-Leu-OH), in assay [1] (amine component 150 mM), the “Produced peptide (Table 15-3)” value is on record as 15.3 mM. Further, the values for the Formed peptide in assay [2] and in assay [3] (setting [7]) were 23.0 mM and 28.4 mM, respectively.

Consider `C[C@@H](O)[C@H](N)C(=O)N[C@@H](CCC(N)=O)C(=O)O` [L-Thr-L-Gln] (H-Thr-Gln-OH), for which the “Produced peptide (Table 15-2)” value in assay [1] came out at 36.1 mM. The Formed peptide in assay [3] (setting [8]) is 0.3 mM; in assay [3] (setting [9]), 81.9 mM.

Bromelain: in assay [5], the L-Ala-L-Gln production rate came to 0.0062 mM/min and the “Ratio … per enzyme unit weight” value worked out at 0.0010.

In the case of `C[C@H](N)C(=O)N[C@@H](Cc1ccccc1)C(=O)O` [L-Ala-L-Phe], the “Produced peptide (Table 15-1)” value in assay [1] (amine component 150 mM) is reported as 69.5 mM. Besides, the Formed peptide in assay [2] was 62.4 mM; in assay [3] (setting [6]), 74.4 mM.

Regarding `CSCC[C@H](NC(=O)[C@@H](N)[C@@H](C)O)C(=O)O` [L-Thr-L-Met] (H-Thr-Met-OH), in assay [1] (amine component 150 mM), the “Produced peptide (Table 15-3)” value is on record as 28.9 mM. This molecule also showed a Formed peptide in assay [3] (setting [7]) of 38.6 mM.

In the case of `CC[C@H](C)[C@H](N)C(=O)N[C@@H](CO)C(=O)O` [L-Ile-L-Ser] (H-Ile-Ser-OH), the “Produced peptide (Table 15-3)” value in assay [1] (amine component 150 mM) came out at 17.3 mM. The Formed peptide in assay [3] (setting [7]) was 17.2 mM.

For `NCC(=O)N[C@@H](CCC(N)=O)C(=O)O` [Gly-L-Gln] (H-Gly-Gln-OH), the “Produced peptide (Table 15-2)” value in assay [1] turned out to be 61.1 mM. Besides, the Formed peptide in assay [3] (setting [9]) is on record as 54.7 mM.

As for `NCC(=O)N[C@@H](CCCN=C(N)N)C(=O)O` [Gly-L-Arg] (H-Gly-Arg-OH), the “Produced peptide (Table 15-3)” value in assay [1] (amine component 150 mM) is on record as 17.9 mM. Moreover, in assay [3] (setting [7]), the Formed peptide came to 25.5 mM.

On to L-Ala-L-Leu-L-Ala, for which the “Produced peptide (Table 16, oligopeptide)” value in assay [1] (amine component 150 mM) turned out to be 40.7 mM. Moreover, the Produced peptide in assay [3] (L-amino acid ester 100 mM, peptide (amine component) 150 mM) is 48.3 mM.

As for `C[C@H](N)C(=O)N[C@@H](Cc1cnc[nH]1)C(=O)O` [L-Ala-L-His] (H-Ala-His-OH), the “Produced peptide (Table 15-4)” value in assay [1] (amine component 150 mM) was “tr”. For the same molecule, the “Produced peptide (Table 15-1)” value in assay [1] (amine component 150 mM) is on record as 73.6 mM. Besides, the Formed peptide in assay [2] worked out at 52.1 mM; in assay [3] (setting [6]), 66.9 mM; in assay [3] (setting [8]) it was 3.9 mM.

Take Ficin: in assay [5], the L-Ala-L-Gln production rate worked out at 0.0096 mM/min and the “Ratio … per enzyme unit weight” value came to 0.0017.

On to `NCCCC[C@H](NC(=O)CN)C(=O)O` [Gly-L-Lys] (H-Gly-Lys-OH), for which the “Produced peptide (Table 15-3)” value in assay [1] (amine component 150 mM) is listed as 48.2 mM. Further, the Formed peptide in assay [3] (setting [7]) was 9.8 mM.

With `CNC(=O)C(C)N` [L-Ala-methylamine], the “Produced peptide (Table 15-4)” value in assay [1] (amine component 150 mM) turned out to be 0.6 mM. This molecule also had a Formed peptide in assay [3] (amino acid methyl ester hydrochloride 100 mM, methylamine 150 mM) of 0.3 mM.

B1: Carboxypeptidase Y: known enzyme described in EP 278787A1, purified enzyme manufactured by Sigma (protein, UniProt P00729 112-532, looked up)
Carboxypeptidase Y: KIKDPKILGIDPNVTQYTGYLDVEDEDKHFFFWTFESRNDPAKDPVILWLNGGPGCSSLTGLFFELGPSSIGPDLKPIGNPYSWNSNATVIFLDQPVNVGFSYSGSSGVSNTVAAGKDVYNFLELFFDQFPEYVNKGQDFHIAGESYAGHYIPVFASEILSHKDRNFNLTSVLIGNGLTDPLTQYNYYEPMACGEGGEPSVLPSEECSAMEDSLERCLGLIESCYDSQSVWSCVPATIYCNNAQLAPYQRTGRNVYDIRKDCEGGNLCYPTLQDIDDYLNQDYVKEAVGAEVDHYESCNFDINRNFLFAGDWMKPYHTAVTDLLNQDLPILVYAGDKDFICNWLGNKAWTDVLPWKYDEEFASQKVRNWTASITDEVAGEVKSYKHFTYLRVFNGGHMVPFDVPENALSMVNEWIHGGFSL
Regarding B1, in assay [5], the L-Ala-L-Gln production rate is 0.0257 mM/min and the “Ratio … per enzyme unit weight” value is given as 0.0191.

B2: Papain: thiol endopeptidase described in EP 359399B1, purified enzyme manufactured by Sigma (protein, UniProt P00784 134-345, looked up)
Papain: IPEYVDWRQKGAVTPVKNQGSCGSCWAFSAVVTIEGIIKIRTGNLNEYSEQELLDCDRRSYGCNGGYPWSALQLVAQYGIHYRNTYPYEGVQRYCRSREKGPYAAKTDGVRQVQPYNEGALLYSIANQPVSVVLEAAGKDFQLYRGGIFVGPCGNKVDHAVAAVGYGPNYILIKNSWGTGWGENGYIRIKRGTGNSYGVCGLYTSSFYPVKN
Consider B2, for which, in assay [5], the L-Ala-L-Gln production rate amounted to 0.0106 mM/min and the “Ratio … per enzyme unit weight” value came to 0.0021.
